System: human embryonic stem cells line H1
Test: IN Cell Analyzer imaging of PDX1, NKX6.1 and CDX2 expressing cells at stage 4 day 4 (Example 1)
Assay type: cell-based
Protocol: Treatment 1: DMEM-High glucose+1% B27 for four days (stage 4-basal media-BM), or […].
Parallel populations of Stage 3 cells were also treated with the following protein kinase C activators—phorbol-12-myristate-13-acetate (PMA) at a concentration of 20 nM (Calbiochem #524400), or [(2S, 5S)-(E, E)-8-(5-(4-(Trifluoromethyl)pheny)-2,4-pentadienoylamino)benzolactam] (TPB) at a concentration of 50 nM (Calbiochem #565740), substituted for PDBu in treatment 3 above. At the end of stage 4, day 4, 91% of the cells of the population treated with PMA, and 90% of the cells of the population treated with TPB expressed NKX6.1.

[1] = PKC activator 20 nM in DMEM-High glucose+1% B27+100 ng/ml Noggin+1 μM ALK5 inhibitor II for four days

Molecule	percentage of total population expressing NKX6.1 [1]	percentage of total population expressing NKX6.1 (TPB 50 nM substituted for PDBu in treatment 3)
CCCC(=O)O[C@@H]1[C@@H](C)[C@@]2(O)[C@@H](C=C(CO)C[C@]3(O)C(=O)C(C)=C[C@@H]23)[C@@H]2C(C)(C)[C@]12OC(=O)CCC [PDBu, phorbol-12,13-dibutyrate]	88%±4.2	
CCCCCCCCCCCCCC(=O)O[C@@H]1[C@@H](C)[C@@]2(O)[C@@H](C=C(CO)C[C@]3(O)C(=O)C(C)=C[C@@H]23)[C@@H]2C(C)(C)[C@]12OC(C)=O [PMA, phorbol-12-myristate-13-acetate]	91%	
(2S, 5S)-(E, E)-8-(5-(4-(Trifluoromethyl)phenyl)-2,4-pentadiemoylamino) benzolactam [TPB]		90%
